Values quoted from earlier work as cited in patent publication US20050153276A1 (priority 2001, published 2005).

System: human hepatocyte and neuroblastoma cells
Conditions: cited from earlier work

Compound | effect on cell metabolism (acidification rate)
CCOP(=O)(OCC)Oc1ccc([N+](=O)[O-])cc1 [paraoxon] | opposite effects on hepatocyte and neuroblastoma cell metabolism
CCOP(=S)(OCC)Oc1ccc([N+](=O)[O-])cc1 [parathion] | opposite effects on hepatocyte and neuroblastoma cell metabolism
